From ChEMBL document CHEMBL1201862, “PubChem BioAssay data set” (2004)
Structures can show the parent of a compound that is named as a salt. Active and inactive are the calls of the source. Cut-off read from the data, not from the text of the source, for most assays here: active = IC50 of 5 µM or less and inactive = more.

Assays:
[1] = cytotoxicity toward HCT116 cells – cell-based, CellTiter-Glo luminescence, IC50, dose response (AID 1117332); format: functional; details: HCT-116
[2] = cytotoxicity toward HT-29 cells – cell-based, CellTiter-Glo luminescence, IC50, dose response (AID 1117330); format: functional
[3] = cytotoxicity toward Colo320 cells – cell-based, CellTiter-Glo luminescence, IC50, dose response (AID 1117334); format: functional; details: COLO 320
[4] = Concentration-dependent survival of SW480 colon cancer line, luminescence detection with CellTiter-Glo, half-maximal inhibitory concentration (AID 1117338); format: functional
[5] = molecular target: Aryl hydrocarbon receptor (Homo sapiens, UniProt P35869); details: Potency;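 note: confirmatory quantitative high-throughput screen measuring activation of the AhR signaling pathway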
[6] = RKO cell viability reduction, dose response, CellTiter-Glo luminescence (AID 1117322); format: functional
[7] = SNU-C1 cell viability reduction, dose response, CellTiter-Glo luminescence (AID 1117323); format: functional, cell-based
[8] = HCT116 cell viability decrease, GSK3B pretreatment – CellTiter-Glo, IC50, dose response (AID 1117339); format: functional; details: HCT-116
[9] = CellTiter-Glo luminescent dose response of DLD-1 viability loss (AID 1117352); format: functional
Protein Tat = Protein Tat (Human immunodeficiency virus type 1 group M subtype B (isolate HXB2)(HIV-1), UniProt P04608); format: functional;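 note: tat binding to TAR RNA read out by fluorescence polarization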
[10] = molecular target: Mitogen-activated protein kinase 10 (Homo sapiens, UniProt P53779); assay: Dose response biochemical screening assay for inhibitors of c-Jun N-Terminal Kinase 3 (JNK3). [Related pubchem assays: 746 ]
[11] = Dose-response inhibition of insulin secretion in a rat insulinoma line at 5 mM glucose (AID 1117331); format: functional, cell-based; details: INS-1E

Sequence of Mitogen-activated protein kinase 10 (P53779 whole entry): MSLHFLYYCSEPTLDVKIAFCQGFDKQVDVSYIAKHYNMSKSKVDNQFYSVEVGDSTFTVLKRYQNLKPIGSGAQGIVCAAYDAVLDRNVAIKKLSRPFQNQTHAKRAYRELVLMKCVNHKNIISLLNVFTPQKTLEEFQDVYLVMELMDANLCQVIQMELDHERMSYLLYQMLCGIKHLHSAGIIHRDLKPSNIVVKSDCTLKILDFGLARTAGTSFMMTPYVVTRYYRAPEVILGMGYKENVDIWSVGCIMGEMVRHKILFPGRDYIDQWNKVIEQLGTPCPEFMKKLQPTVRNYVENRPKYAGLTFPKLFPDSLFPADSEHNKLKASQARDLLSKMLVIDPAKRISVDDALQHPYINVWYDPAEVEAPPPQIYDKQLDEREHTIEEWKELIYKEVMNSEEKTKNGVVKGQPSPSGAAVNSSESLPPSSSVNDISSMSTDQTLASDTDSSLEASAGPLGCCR
Sequence of Protein Tat (P04608 whole entry): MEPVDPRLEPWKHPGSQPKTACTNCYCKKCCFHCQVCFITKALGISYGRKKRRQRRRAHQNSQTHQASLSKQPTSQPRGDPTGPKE
Sequence of Aryl hydrocarbon receptor (P35869 whole entry): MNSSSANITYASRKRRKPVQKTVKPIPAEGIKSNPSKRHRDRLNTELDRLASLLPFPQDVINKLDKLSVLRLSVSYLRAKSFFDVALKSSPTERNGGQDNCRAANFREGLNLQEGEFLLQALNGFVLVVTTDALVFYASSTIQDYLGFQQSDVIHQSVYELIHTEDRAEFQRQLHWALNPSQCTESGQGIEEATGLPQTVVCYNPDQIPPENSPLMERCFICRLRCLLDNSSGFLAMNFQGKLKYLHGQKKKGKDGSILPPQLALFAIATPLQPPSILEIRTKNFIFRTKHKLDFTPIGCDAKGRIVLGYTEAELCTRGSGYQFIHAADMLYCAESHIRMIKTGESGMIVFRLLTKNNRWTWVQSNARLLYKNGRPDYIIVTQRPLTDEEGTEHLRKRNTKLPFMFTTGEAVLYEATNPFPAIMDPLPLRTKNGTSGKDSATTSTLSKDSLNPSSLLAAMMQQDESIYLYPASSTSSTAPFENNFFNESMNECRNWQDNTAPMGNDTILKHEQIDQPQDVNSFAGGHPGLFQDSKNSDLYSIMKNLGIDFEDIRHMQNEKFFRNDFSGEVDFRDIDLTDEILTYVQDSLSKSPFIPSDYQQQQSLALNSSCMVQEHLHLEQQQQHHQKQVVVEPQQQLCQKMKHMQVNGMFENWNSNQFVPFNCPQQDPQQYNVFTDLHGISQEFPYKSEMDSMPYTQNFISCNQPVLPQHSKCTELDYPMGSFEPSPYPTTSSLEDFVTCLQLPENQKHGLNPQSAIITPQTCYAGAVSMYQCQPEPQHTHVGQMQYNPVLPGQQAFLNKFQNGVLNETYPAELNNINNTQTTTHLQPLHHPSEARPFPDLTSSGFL

Structure (SMILES) | IC50 [1] | IC50 [2] | IC50 [3] | IC50 [4] | IC50 [6] | IC50 [7] | IC50 [8] | IC50 [9] | further results
CN(C)c1ccc(C(=C2C=CC(=[N+](C)C)C=C2)c2ccccc2)cc1 | 0.0179 µM (active) | 0.00982 µM (active) | 0.161 µM (active) | 0.00922 µM (active) | 0.118 µM (active) | 0.0354 µM (active) | 0.00983 µM (active) | 0.0218 µM (active) | AC50 [5]: 7.94 µM (inconclusive)
CN1CCN(C(=O)CSc2nc(-c3cccs3)ccc2C#N)CC1 | – | – | – | – | – | – | – | – | IC50 (Protein Tat): > 100 µM (active)
O=C1C(/C=N/Cc2cccnc2)=C(O)c2ccccc21 | – | – | – | – | – | – | – | – | IC50 [10]: 32.1 µM (not active)
CN(C)CCCOc1nn(Cc2ccccc2)c2ccccc12 [BENZYDAMINE HYDROCHLORIDE] | – | – | – | – | – | – | – | – | IC50 [11]: 21.4 µM (inactive)
NC1=NCC2c3ccccc3Cc3ccccc3N12 (stereo not given) [EPINASTINE HYDROCHLORIDE] | > 20 µM (inactive) | > 20 µM (inactive) | > 20 µM (inactive) | > 20 µM (inactive) | > 20 µM (inactive) | > 20 µM (inactive) | > 20 µM (inactive) | > 20 µM (inactive) | –
